13 molecules from publication PMC4550876, “Discovery of γ-Mangostin as an Amyloidogenesis Inhibitor” (Scientific Reports, 2015) can be followed below.

One test deals with T1, V30M tetramer (Homo sapiens, UniProt P02766, V50M).
T1 construct: made in house
Kind of test: Glutaraldehyde cross-linking assay of quaternary structural stability at acidic pH. Type of test: biochemical. The settings on record: pH 4.5, 310 K, 10 days, 3.6 μM V30M, compound 5 and 50 μM, SDS-PAGE. As to the method:
The effect of the selected compounds on the quaternary structural stability of V30M at acidic pH was assessed using glutaraldehyde cross-linking followed by SDS-PAGE as previously described.
Glutaraldehyde cross-linking experiments were performed as previously described with some minor modifications. The stock solutions of the selected compounds were prepared in ethanol. Prior to the acid-mediated tetramer dissociation, V30M in solution [20 mM Tris-Cl pH 8.0 and 150 mM NaCl] was incubated with the compounds at room temperature for 30 min. After the incubation period, a 2-fold volume of 0.1 M sodium acetate pH 4.5 was added, and then the sample was incubated at 310 K for 10 days. At this stage, the protein concentration was 3.6 μM, and the compound concentrations were 5 and 50 μM. After the incubation period, 50 μL aliquots of the incubated samples were mixed with 2.5 μL of 25% glutaraldehyde and incubated at room temperature for 4 min, and the reactions were terminated by the addition of 5 μL of sodium borohydrate (7% (w/v) in 0.1 N NaOH). The aliquots were then mixed with SDS sample buffer, boiled and resolved by SDS-PAGE. The protein bands were visualized by silver staining.

The next test addresses T2, V30M mutated TTR (Homo sapiens, UniProt P02766, V50M).
T2 construct: made in house
Kind of test: Acid-mediated aggregation experiment (thioflavin T assay) of amyloid fibril formation. Type of test: biochemical. The note with it: 10 μM V30M; for EC50 / Inhibition ratio at 20 μM / inhibition at 20 µM: pH 4.5, 310 K, 96 h; for EC50: 0–20 μM compound, thioflavin T fluorescence; for Inhibition ratio at 20 μM / inhibition at 20 µM: 20 μM compound; for inhibition at 20 µM: read-out: Inhibition ratio at 20 μM. The text has this:
V30M mutated TTR (V30M), which is most commonly associated with FAP, was used in this study, along with the following commercially available compounds (Fig. 1 and Table 1): α-mangostin (α-M, 1), 3-isomangostin (2) 9-hydroxycalabaxanthone (3), γ-mangostin (γ-M, 4), gartanin (5), 8-deoxygartanin (6), garcinone C (7), norathyriol (8), 1,3,7-trihydroxy-2-prenylxanthone (9), 3,4,5,6-tetrahydroxyxanthone (10), 1,6,7-trihydroxyxanthone (11) and mangiferin (12). Amyloid fibril formation of V30M was induced by acidic pH and the amount of fibril was quantified using thioflavin T in the presence of 0–20 μM of the compounds. The EC50 values were calculated as previously described.
Thioflavin T assay was performed using V30M in [20 mM Tris-HCl pH 8.0 and 150 mM NaCl] and 10 mM stock solutions (ethanol) of xanthone derivatives. Prior to acid-mediated aggregation, 50 μL of V30M (100 μM) was incubated for 30 min in the presence of xanthone derivatives at room temperature. After the incubation, the pH was decreased to 4.5 by adding 450 μL of 50 mM sodium acetate pH 4.5. The sample was gently vortexed and incubated at 310 K for 96 h. At this time, the concentrations of V30M and the xanthone derivatives were 10 μM and 2.5-20 μM, respectively. The solution was 5.5-fold diluted with 200 mM Tris-HCl buffer (pH 8.0). Thioflavin T assays were performed via the addition of 10 mM thioflavin T to 1.8 μM TTR samples. The final concentration of thioflavin T was 20 μM. Fluorescence emission spectra were obtained with excitation and emission wavelengths of 440 and 484 nm, respectively. The fluorescence of the sample without incubation at pH 4.5 was used as a 100% control, and that of the sample in the absence of xanthone derivatives with incubation at pH 4.5 was used as a 0% control. The amyloid fibril inhibitory ratio (%) = 100 × [1 - (fluorescence at each concentration of xanthone derivatives - 100% control)/(0% control - 100% control)]. Amyloid fibril inhibitory curves were fitted using the 4-parameter logistic model by the least squares methods and at least 3 ligand concentrations were used[30]. EC50 was estimated according to this model.

In another test the target is T3, V30M (Homo sapiens, UniProt P02766, V50M).
T3 construct: made in house
In words: Intrinsic fluorescence quenching titration. Type of test: binding. The settings on record: 2 μM TTR, excitation 280 nm, 0–20 μM γ-M. Here is the method: (§1) V30M was titrated with various concentrations of γ-M. A previous study has shown that the binding to TTR induces quenching of the intrinsic fluorescence emission from TTR at 336 nm[22]. […] In addition, we performed a competitive binding assay using trans-resveratrol, which is known to bind to the T4-binding sites of TTR. […] For additional evidence, a pull-down assay was carried out using Sepharose 4B beads coupled with γ-M. V30M was detected in the Sepharose 4B-γ-M-coupled beads but not in Sepharose 4B beads alone or in Sepharose 4B beads alone with free γ-M (Fig. 2c).
(§2) The binding of γ-M to TTR was confirmed by an intrinsic emission fluorescence spectrum assay and a resveratrol competitive binding assay. For the intrinsic fluorescence, the spectra (300–400 nm) of 2 μM TTR in [50 mM Tris-HCl pH 7.5 and 150 mM NaCl] were recorded by exciting the protein at 280 nm[22]. […] The spectra were recorded at 0, 0.5, 2, 5 and 20 μM of γ-M. For the resveratrol competitive binding assay, the spectra (350–500 nm) of 2 μM TTR in [50 mM Tris-HCl pH 7.5 and 150 mM NaCl] were recorded by exciting trans-resveratrol at 320 nm[23]. The solutions of resveratrol and γ-M were sequentially added to the protein solution in the same manner as for the intrinsic fluorescence assay.

The next test has as its target T4, T4-binding sites of V30M (Homo sapiens, UniProt P02766, V50M).
T4 construct: made in house
In words: Resveratrol competitive binding assay. The note with it: 2 μM TTR, 5 μM resveratrol, excitation 320 nm. Here is the method:
as §1, §2

As a reminder, the EC50 is the concentration giving half of the maximal effect. Regarding `COc1c(O)cc2oc3cc(O)c(CC=C(C)C)c(O)c3c(=O)c2c1CC=C(C)C` [Compound 1, α-mangostin], the tetramer fraction result on V30M tetramer is on record as “increased in a dose-dependent manner”. Moreover, at V30M mutated TTR, the response was half-maximal at 15 ± 0.75 µM (EC50), the “Inhibition ratio at 20 μM” value amounted to 61 ± 4.7% and the inhibition at 20 µM is 61%.

Turning to `CC(C)=CCc1c(O)cc2oc3ccc(O)cc3c(=O)c2c1O` [Compound 9, 1,3,7-trihydroxy-2-prenylxanthone], at V30M mutated TTR, the EC50 amounted to 13 ± 1.1 µM and the inhibition at 20 µM amounted to 67 ± 2.7%.

With `COc1c(O)cc2oc3cc4c(c(O)c3c(=O)c2c1CC=C(C)C)C=CC(C)(C)O4` [Compound 3, 9-hydroxycalabaxanthone], on V30M mutated TTR, the EC50 was greater than 20 µM, the “Inhibition ratio at 20 μM” value was 29 ± 1.5% and the inhibition at 20 µM turned out to be 29%.

`O=C(O)c1cc(-c2ccc(F)cc2F)ccc1O` [diflunisal, reference compound]: the inhibition at 20 µM on V30M mutated TTR is 97 ± 1.7%.

On to `CC(C)=CCc1c(O)cc2oc3cc(O)c(O)c(CC=C(C)C)c3c(=O)c2c1O` [Compound 4, γ-mangostin], for which the “quenching of the intrinsic fluorescence emission from V30M” value at V30M is given as “induced similar quenching”. Also, the tetramer fraction result on V30M tetramer is “increased in a dose-dependent manner”. Moreover, the “fluorescence intensity of resveratrol bound to V30M on addition of compound” value at T4-binding sites of V30M is recorded as “significantly decreased”. Also, on V30M mutated TTR, the EC50 is 7 ± 0.6 µM and the inhibition at 20 µM was 97 ± 1.3%.

On to `O=c1c2cc(O)c(O)cc2oc2cc(O)cc(O)c12` [Compound 8, norathyriol], for which, on V30M mutated TTR, the EC50 is 9.7 ± 0.48 µM and the inhibition at 20 µM turned out to be 79 ± 0.49%.

As for `O=c1c2ccc(O)c(O)c2oc2c(O)c(O)ccc12` [Compound 10, 3,4,5,6-tetrahydroxyxanthone], on V30M mutated TTR, the EC50 was greater than 20 µM and the inhibition at 20 µM was 25 ± 0.97%.

As for `CC(C)=CCc1c(O)c(CC=C(C)C)c2oc3c(O)ccc(O)c3c(=O)c2c1O` [Compound 5, gartanin], on V30M mutated TTR, the EC50 was greater than 20 µM and the inhibition at 20 µM was determined as 30 ± 0.79%.

For the molecule `O=c1c2cc(O)c(O)cc2oc2cc(O)c([C@@H]3O[C@H](CO)[C@@H](O)[C@H](O)[C@H]3O)c(O)c12` [Compound 12, mangiferin], on V30M mutated TTR, the EC50 was greater than 20 µM and the inhibition at 20 µM worked out at 8.5 ± 2.1%.

In the case of `COc1c(O)cc2oc3cc4c(c(O)c3c(=O)c2c1CC=C(C)C)CCC(C)(C)O4` [Compound 2, 3-isomangostin], on V30M mutated TTR, the EC50 was greater than 20 µM, the “Inhibition ratio at 20 μM” value is on record as 32 ± 1.3% and the inhibition at 20 µM is 32%.

On to `CC(C)=CCc1c(O)cc2oc3cc(O)c(O)c(CCC(C)(C)O)c3c(=O)c2c1O` [Compound 7, garcinone C], for which, at V30M mutated TTR, the 50% effective concentration (EC50) is 10 ± 0.3 µM and the inhibition at 20 µM was 83 ± 0.23%.

Take `O=c1c2cc(O)c(O)cc2oc2cccc(O)c12` [Compound 11, 1,6,7-trihydroxyxanthone]: on V30M mutated TTR, a half-maximal effect (EC50) was put at 14 ± 0.51 µM and the inhibition at 20 µM stood at 64 ± 1.2%.

In the case of `CC(C)=CCc1c(O)c(CC=C(C)C)c2oc3c(O)cccc3c(=O)c2c1O` [Compound 6, 8-deoxygartanin], the “inhibitory ability against amyloid fibril formation” value at V30M mutated TTR (up to 20 μM compound) was “did not exhibit the inhibitory ability”.
